Data reported in ChEMBL document CHEMBL2413072, “Synthesis and in vitro anticancer studies of novel C-2 arylidene congeners of lantadenes” (2013).

What was measured:
Assay type in all cases: functional
NCI-H522 [1] = experiment: Growth inhibition of human NCI-H522 cells assessed as cell growth at 10^-7 M by sulforhodamine B assay; conditions: read-out: Activity
COLO 205 = experiment: Growth inhibition of human COLO205 cells assessed as cell growth at 10^-7 M by sulforhodamine B assay; conditions: read-out: Activity
786-0 = experiment: Growth inhibition of human 786-0 cells assessed as cell growth at 10^-8 M by sulforhodamine B assay; conditions: read-out: Activity
SK-MEL-28 [2] = experiment: Growth inhibition of human SK-MEL-28 cells assessed as cell growth at 10^-8 M by sulforhodamine B assay; conditions: read-out: Activity
UACC-62 = experiment: Growth inhibition of human UACC62 cells assessed as cell growth at 10^-4 M by sulforhodamine B assay; conditions: read-out: Activity
TK-10 [3] = experiment: Growth inhibition of human TK10 cells assessed as cell growth at 10^-4 M by sulforhodamine B assay; conditions: read-out: Activity
SF-539 [4] = experiment: Growth inhibition of human SF539 cells assessed as cell growth at 10^-6 M by sulforhodamine B assay; conditions: read-out: Activity
UACC-257 = experiment: Growth inhibition of human UACC257 cells assessed as cell growth at 10^-8 M by sulforhodamine B assay; conditions: read-out: Activity
T47D = experiment: Growth inhibition of human T47D cells assessed as cell growth at 10^-8 M by sulforhodamine B assay; conditions: read-out: Activity
A549 = experiment: Growth inhibition of human A549/ATCC cells assessed as cell growth at 10^-7 M by sulforhodamine B assay; conditions: read-out: Activity
TK-10 [5] = experiment: Growth inhibition of human TK10 cells assessed as cell growth at 10^-8 M by sulforhodamine B assay; conditions: read-out: Activity
A498 = experiment: Growth inhibition of human A498 cells assessed as cell growth at 10^-7 M by sulforhodamine B assay; conditions: read-out: Activity
IGROV-1 = experiment: Growth inhibition of human IGROV1 cells assessed as cell growth at 10^-8 M by sulforhodamine B assay; conditions: read-out: Activity
HCT-116 = experiment: Growth inhibition of human HCT116 cells assessed as cell growth at 10^-6 M by sulforhodamine B assay; conditions: read-out: Activity
MDA-MB-435 [6] = experiment: Growth inhibition of human MDA-MB-435 cells assessed as cell growth at 10^-8 M by sulforhodamine B assay; conditions: read-out: Activity
CAKI-1 = experiment: Growth inhibition of human CAKI-1 cells assessed as cell growth at 10^-7 M by sulforhodamine B assay; conditions: read-out: Activity
BT-549 = experiment: Growth inhibition of human BT549 cells assessed as cell growth at 10^-6 M by sulforhodamine B assay; conditions: read-out: Activity
OVCAR-8 = experiment: Growth inhibition of human OVCAR8 cells assessed as cell growth at 10^-8 M by sulforhodamine B assay; conditions: read-out: Activity
NCI-H522 [7] = experiment: Growth inhibition of human NCI-H522 cells assessed as cell growth at 10^-8 M by sulforhodamine B assay; conditions: read-out: Activity
CCRF-CEM [8] = experiment: Growth inhibition of human CCRF-CEM cells by sulforhodamine B assay
SK-MEL-28 [9] = experiment: Growth inhibition of human SK-MEL-28 cells assessed as cell growth at 10^-4 M by sulforhodamine B assay; conditions: read-out: Activity
HL-60(TB) = experiment: Growth inhibition of human HL-60(TB) cells assessed as cell growth at 10^-7 M by sulforhodamine B assay; conditions: read-out: Activity
SF-539 [10] = experiment: Growth inhibition of human SF539 cells assessed as cell growth at 10^-7 M by sulforhodamine B assay; conditions: read-out: Activity
OVCAR-4 = experiment: Growth inhibition of human OVCAR4 cells assessed as cell growth at 10^-8 M by sulforhodamine B assay; conditions: read-out: Activity
SF-295 = experiment: Growth inhibition of human SF295 cells assessed as cell growth at 10^-6 M by sulforhodamine B assay; conditions: read-out: Activity
NCI-H23 = experiment: Growth inhibition of human NCI-H23 cells by sulforhodamine B assay
NCI-H460 = experiment: Growth inhibition of human NCI-H460 cells assessed as cell growth at 10^-4 M by sulforhodamine B assay; conditions: read-out: Activity
MDA-MB-435 [11] = experiment: Growth inhibition of human MDA-MB-435 cells assessed as cell growth at 10^-7 M by sulforhodamine B assay; conditions: read-out: Activity
MDA-MB-231 = experiment: Growth inhibition of human MDA-MB-231 cells by sulforhodamine B assay
HT-29 [12] = experiment: Growth inhibition of human HT-29 cells assessed as cell growth at 10^-4 M by sulforhodamine B assay; conditions: read-out: Activity
SW-620 = experiment: Growth inhibition of human SW620 cells assessed as cell growth at 10^-6 M by sulforhodamine B assay; conditions: read-out: Activity
SK-MEL-2 = experiment: Growth inhibition of human SK-MEL-2 cells by sulforhodamine B assay
HCT-15 = experiment: Growth inhibition of human HCT15 cells assessed as cell growth at 10^-7 M by sulforhodamine B assay; conditions: read-out: Activity
SN12C = experiment: Growth inhibition of human SN12C cells by sulforhodamine B assay
HOP-92 = experiment: Growth inhibition of human HOP92 cells by sulforhodamine B assay
[13] = Growth inhibition of human HCC2998 cells assessed as cell growth at 10^-8 M by sulforhodamine B assay; conditions: HCC 2998, read-out: Activity
HT-29 [14] = experiment: Growth inhibition of human HT-29 cells assessed as cell growth at 10^-6 M by sulforhodamine B assay; conditions: read-out: Activity
DU-145 = experiment: Growth inhibition of human DU145 cells assessed as cell growth at 10^-7 M by sulforhodamine B assay; conditions: read-out: Activity
CCRF-CEM [15] = experiment: Growth inhibition of human CCRF-CEM cells assessed as cell growth at 10^-7 M by sulforhodamine B assay; conditions: read-out: Activity
Malme-3M = experiment: Growth inhibition of human MALME-3M cells assessed as cell growth at 10^-8 M by sulforhodamine B assay; conditions: read-out: Activity
[16] = read-out: LC50 (the source's name)
[17] = read-out: pLC50 (the source's name) (converted)

C/C=C(/C)C(=O)O[C@@H]1CC(C)(C)C[C@H]2C3=CC[C@@H]4[C@@]5(C)CC[C@H](O)C(C)(C)[C@@H]5CC[C@@]4(C)[C@]3(C)CC[C@@]12C(=O)O [Reduced Lantadene A]
growth at 0.1 µM (NCI-H522 [1]): 100% | growth at 0.1 µM (COLO 205): 107% | growth at 0.01 µM (786-0): 101% | growth at 0.01 µM (SK-MEL-28 [2]): 90% | growth at 100 µM (UACC-62): -70% | growth at 100 µM (TK-10 [3]): -69% | growth at 1 µM (SF-539 [4]): 101% | growth at 0.01 µM (UACC-257): 93% | growth at 0.01 µM (T47D): 101% | growth at 0.1 µM (A549): 90% | growth at 0.01 µM (TK-10 [5]): 103% | growth at 0.1 µM (A498): 77% | growth at 0.01 µM (IGROV-1): 109% | growth at 1 µM (HCT-116): 82% | growth at 0.01 µM (MDA-MB-435 [6]): 98% | growth at 0.1 µM (CAKI-1): 96% | growth at 1 µM (BT-549): 95% | growth at 0.01 µM (OVCAR-8): 98% | growth at 0.01 µM (NCI-H522 [7]): 102% | GI50 (CCRF-CEM [8]; read-out: GI50): 2.31 µM | CC50 (CCRF-CEM [8]; [16]): > 100 µM | TGI (CCRF-CEM [8]; read-out: TGI): 6.52 µM | GI50 (CCRF-CEM [8]; read-out: pGI50 (converted)): 2.29 µM | CC50 (CCRF-CEM [8]; [17]): > 100 µM | TGI (CCRF-CEM [8]; read-out: pTGI (converted)): 6.46 µM | growth at 100 µM (SK-MEL-28 [9]): -41% | growth at 0.1 µM (HL-60(TB)): 110% | growth at 0.1 µM (SF-539 [10]): 103% | growth at 0.01 µM (OVCAR-4): 97% | growth at 1 µM (SF-295): 81% | GI50 (NCI-H23; read-out: GI50): 2.39 µM | CC50 (NCI-H23; [16]): 91.2 µM | TGI (NCI-H23; read-out: TGI): 5.93 µM | GI50 (NCI-H23; read-out: pGI50 (converted)): 2.4 µM | CC50 (NCI-H23; [17]): 91.2 µM | TGI (NCI-H23; read-out: pTGI (converted)): 5.89 µM | growth at 100 µM (NCI-H460): -37% | growth at 0.1 µM (MDA-MB-435 [11]): 94% | GI50 (MDA-MB-231; read-out: GI50): 1.65 µM | CC50 (MDA-MB-231; [16]): 5.98 µM | TGI (MDA-MB-231; read-out: TGI): 3.14 µM | GI50 (MDA-MB-231; read-out: pGI50 (converted)): 1.66 µM | CC50 (MDA-MB-231; [17]): 6.03 µM | TGI (MDA-MB-231; read-out: pTGI (converted)): 3.16 µM | growth at 100 µM (HT-29 [12]): -64% | growth at 1 µM (SW-620): 90% | GI50 (SK-MEL-2; read-out: GI50): 2.2 µM | CC50 (SK-MEL-2; [16]): 8.29 µM | TGI (SK-MEL-2; read-out: TGI): 4.27 µM | GI50 (SK-MEL-2; read-out: pGI50 (converted)): 2.19 µM | CC50 (SK-MEL-2; [17]): 8.32 µM | TGI (SK-MEL-2; read-out: pTGI (converted)): 4.27 µM | growth at 0.1 µM (HCT-15): 101% | GI50 (SN12C; read-out: GI50): 1.63 µM | CC50 (SN12C; [16]): 7.22 µM | TGI (SN12C; read-out: TGI): 3.43 µM | GI50 (SN12C; read-out: pGI50 (converted)): 1.62 µM | CC50 (SN12C; [17]): 7.24 µM | TGI (SN12C; read-out: pTGI (converted)): 3.47 µM | GI50 (HOP-92; read-out: GI50): 1.41 µM | CC50 (HOP-92; [16]): 6.21 µM | TGI (HOP-92; read-out: TGI): 2.96 µM | GI50 (HOP-92; read-out: pGI50 (converted)): 1.41 µM | CC50 (HOP-92; [17]): 6.17 µM | TGI (HOP-92; read-out: pTGI (converted)): 2.95 µM | growth at 0.01 µM [13]: 99% | growth at 1 µM (HT-29 [14]): 105% | growth at 0.1 µM (DU-145): 115% | growth at 0.1 µM (CCRF-CEM [15]): 100% | growth at 0.01 µM (Malme-3M): 94%
